Experimental data published in patent US6632799B2, “Injectable ready-to-use solutions containing an antitumor anthracycline glycoside” (Pharmacia & Upjohn Company, priority 1985, dated 2003).
Where a name gives a salt, the structure may show the parent alone.

Key:
[1] = Shelf-life (t 90%) forecast of doxorubicin.HCl 2 mg/ml solution in 5% dextrose adjusted to pH 3.0; assay type: physicochemical; conditions: for Kobs × 10^3: observed
Description: Applying the equation, the rate constants for the pseudo-first order reactions at 4° C., 8° C., and 15° C. and 27° C. were calculated, together with the expected t90% at these temperatures.

[2] = Shelf-life (t 90%) forecast of doxorubicin.HCl 2 mg/ml sterile water solution adjusted to pH 3.0; assay type: physicochemical; conditions: for Kobs × 10^3: observed
Description: The Arrhenius equation for the degradation process was calculated from the Kobs obtained from the different temperatures taken in account for the testing (table 11).
Applying the equation, the rate constants for the pseudo-first order reactions at 4° C., 8° C., 15° C. and 27° C. were calculated, together with the expected t90% at these temperatures.

[3] = 5% dextrose pH 3.0, 35° C., 4 days
[4] = 5% dextrose pH 3.0, 35° C., 8 days
[5] = 5% dextrose pH 3.0, 35° C., 14 days
[6] = 5% dextrose pH 3.0, 35° C., 17 days
[7] = 5% dextrose pH 3.0, 35° C., 21 days
[8] = 5% dextrose pH 3.0, 45° C., 4 days
[9] = 5% dextrose pH 3.0, 45° C., 8 days
[10] = 5% dextrose pH 3.0, 45° C., 14 days
[11] = 5% dextrose pH 3.0, 45° C., 21 days
[12] = 5% dextrose pH 3.0, 55° C., 17 days
[13] = 5% dextrose pH 3.0, 55° C., 21 days
[14] = 5% dextrose pH 3.0, 60° C., 2 days
[15] = 5% dextrose pH 3.0, 60° C., 4 days
[16] = 5% dextrose pH 3.0, 60° C., 6 days
[17] = 5% dextrose pH 3.0, 60° C., 8 days
[18] = sterile water pH 3.0, 15° C., Arrhenius
[19] = sterile water pH 3.0, 27° C., 8 days
[20] = sterile water pH 3.0, 27° C., 14 days
[21] = sterile water pH 3.0, 27° C., 28 days
[22] = sterile water pH 3.0, 27° C., 32 days
[23] = sterile water pH 3.0, 27° C., 60 days
[24] = sterile water pH 3.0, 27° C., 90 days
[25] = sterile water pH 3.0, 35° C., 4 days
[26] = sterile water pH 3.0, 35° C., 8 days
[27] = sterile water pH 3.0, 35° C., 14 days
[28] = sterile water pH 3.0, 35° C., 32 days
[29] = sterile water pH 3.0, 45° C., 4 days
[30] = sterile water pH 3.0, 45° C., 8 days
[31] = sterile water pH 3.0, 45° C., 28 days
[32] = sterile water pH 3.0, 55° C., 4 days
[33] = sterile water pH 3.0, 55° C., 32 days

COc1cccc2c1C(=O)c1c(O)c3c(c(O)c1C2=O)C[C@@](O)(C(=O)CO)C[C@@H]3O[C@H]1C[C@H](N)[C@H](O)[C@H](C)O1 [Doxorubicin.HCl, doxorubicin hydrochloride]
commercially meaningful shelf-life (t90% forecasts) ([1]; 2 mg/ml pH 3.0 5% dextrose solution): only if the product is stored in a refrigerator
t90% ([1]; 5% dextrose pH 3.0, 27° C., Arrhenius): 82 days
Doxorubicin.HCl assay ([1]; 5% dextrose pH 3.0, 35° C., 0 days): 2.114 mg/mL
Doxorubicin.HCl assay [1, 3]: 2.044 mg/mL
pH [1, 3]: 2.98
Doxorubicin.HCl assay [1, 4]: 2.034 mg/mL
pH [1, 4]: 2.94
Doxorubicin.HCl assay [1, 5]: 2.015 mg/mL
pH [1, 5]: 2.95
Doxorubicin.HCl assay [1, 6]: 1.934 mg/mL
pH [1, 6]: 2.90
Doxorubicin.HCl assay [1, 7]: 1.859 mg/mL
pH [1, 7]: 2.94
Kobs × 10^3 ([1]; 5% dextrose pH 3.0, 35° C.): 4.190 1/days
Doxorubicin.HCl assay ([1]; 5% dextrose pH 3.0, 45° C., 0 days): 2.114 mg/mL
Doxorubicin.HCl assay [1, 8]: 1.940 mg/mL
pH [1, 8]: 2.97
Doxorubicin.HCl assay [1, 9]: 1.870 mg/mL
pH [1, 9]: 2.98
Doxorubicin.HCl assay [1, 10]: 1.684 mg/mL
pH [1, 10]: 2.95
pH ([1]; 5% dextrose pH 3.0, 45° C., 17 days): 2.96
Doxorubicin.HCl assay [1, 11]: 1.410 mg/mL
pH [1, 11]: 2.96
Kobs × 10^3 ([1]; 5% dextrose pH 3.0, 45° C.): 14.55 1/days
Doxorubicin.HCl assay ([1]; 5% dextrose pH 3.0, 55° C., 0 days): 2.114 mg/mL
pH ([1]; 5% dextrose pH 3.0, 55° C., 4 days): 2.95
pH ([1]; 5% dextrose pH 3.0, 55° C., 8 days): 2.92
pH ([1]; 5% dextrose pH 3.0, 55° C., 14 days): 2.99
Doxorubicin.HCl assay [1, 12]: 0.957 mg/mL
pH [1, 12]: 2.91
Doxorubicin.HCl assay [1, 13]: 0.796 mg/mL
pH [1, 13]: 2.95
Kobs × 10^3 ([1]; 5% dextrose pH 3.0, 55° C.): 58.11 1/days
Doxorubicin.HCl assay ([1]; 5% dextrose pH 3.0, 60° C., 0 days): 2.114 mg/mL
Doxorubicin.HCl assay [1, 14]: 1.752 mg/mL
pH [1, 14]: 2.96
Doxorubicin.HCl assay [1, 15]: 1.393 mg/mL
pH [1, 15]: 2.98
Doxorubicin.HCl assay [1, 16]: 1.176 mg/mL
pH [1, 16]: 2.96
Doxorubicin.HCl assay [1, 17]: 0.925 mg/mL
pH [1, 17]: 2.97
Kobs × 10^3 ([1]; 5% dextrose pH 3.0, 60° C.): 102.6 1/days
commercially meaningful shelf-life (t90% forecasts) ([2]; 2 mg/ml pH 3.0 aqueous solution): only if the product is stored in a refrigerator
K × 10^3 calculated ([2]; sterile water pH 3.0, 4° C., Arrhenius): 0.019 1/days
K × 10^3 calculated ([2]; sterile water pH 3.0, 8° C., Arrhenius): 0.038 1/days
K × 10^3 calculated [2, 18]: 0.130 1/days
t90% [2, 18]: 810 days
pH ([2]; sterile water pH 3.0, 27° C., 0 days): 3.00
Doxorubicin.HCl assay [2, 19]: 1.993 mg/mL
pH [2, 19]: 2.95
Doxorubicin.HCl assay [2, 20]: 1.988 mg/mL
pH [2, 20]: 2.94
Doxorubicin.HCl assay [2, 21]: 1.941 mg/mL
pH [2, 21]: 2.94
Doxorubicin.HCl assay [2, 22]: 1.962 mg/mL
pH [2, 22]: 2.95
Doxorubicin.HCl assay [2, 23]: 1.908 mg/mL
pH [2, 23]: 2.96
Doxorubicin.HCl assay [2, 24]: 1.850 mg/mL
pH [2, 24]: 2.93
K × 10^3 calculated ([2]; sterile water pH 3.0, 27° C., Arrhenius): 0.918 1/days
Kobs × 10^3 ([2]; sterile water pH 3.0, 27° C.): 0.850 1/days
pH ([2]; sterile water pH 3.0, 35° C., 0 days): 3.00
Doxorubicin.HCl assay [2, 25]: 1.985 mg/mL
pH [2, 25]: 2.96
Doxorubicin.HCl assay [2, 26]: 1.952 mg/mL
pH [2, 26]: 2.98
Doxorubicin.HCl assay [2, 27]: 1.889 mg/mL
pH [2, 27]: 2.93
pH ([2]; sterile water pH 3.0, 35° C., 28 days): 2.92
Doxorubicin.HCl assay [2, 28]: 1.876 mg/mL
pH [2, 28]: 2.92
Kobs × 10^3 ([2]; sterile water pH 3.0, 35° C.): 3.506 1/days
pH ([2]; sterile water pH 3.0, 45° C., 0 days): 3.00
Doxorubicin.HCl assay [2, 29]: 1.919 mg/mL
pH [2, 29]: 2.97
Doxorubicin.HCl assay [2, 30]: 1.851 mg/mL
pH [2, 30]: 2.95
pH ([2]; sterile water pH 3.0, 45° C., 14 days): 2.85
Doxorubicin.HCl assay [2, 31]: 1.393 mg/mL
pH [2, 31]: 2.90
pH ([2]; sterile water pH 3.0, 45° C., 32 days): 2.92
Kobs × 10^3 ([2]; sterile water pH 3.0, 45° C.): 12.790 1/days
pH ([2]; sterile water pH 3.0, 55° C., 0 days): 3.00
Doxorubicin.HCl assay [2, 32]: 1.760 mg/mL
pH [2, 32]: 2.94
pH ([2]; sterile water pH 3.0, 55° C., 8 days): 2.90
pH ([2]; sterile water pH 3.0, 55° C., 14 days): 2.80
Doxorubicin.HCl assay [2, 33]: 0.730 mg/mL
pH [2, 33]: 2.82
Kobs × 10^3 ([2]; sterile water pH 3.0, 55° C.): 49.340 1/days
